# System: NO production in BV2 microglial cell cultures treated with lipopolysachharide (LPS)
# Assay: Inhibition of NO production in LPS-treated BV2 microglial cell cultures
# Type: cell-based
# Conditions: BV2 cells
row,SMILES,anti-inflammatory potency compared to DFB (in words)
1,"O=C(Nc1ccccc1F)[C@H]1C[C@@H]1c1cccc(F)c1 (racemic) [Compound 1a, N-(2-fluorophenyl)-2-(3-fluorophenyl) cyclopropane-1-carboxamide]",decreased anti-inflammatory potency
2,O=C(Nc1ccc(F)cc1)[C@H]1C[C@@H]1c1cccc(F)c1 (racemic) [Compound 1b],decreased anti-inflammatory potency
3,O=C(Nc1ccccc1Cl)[C@H]1C[C@@H]1c1cccc(F)c1 (racemic) [Compound 1c],decreased anti-inflammatory potency
4,"O=C(Nc1nc2ccccc2s1)[C@H]1C[C@@H]1c1cccc(F)c1 (racemic) [Compound 1e, N-(Benzo[d]thiazol-2-yl)-2-(3-fluorophenyl)cyclopropane-1-carboxamide]",superior potency to DFB
5,"O=C(Nc1nc2ccccc2[nH]1)[C@H]1C[C@@H]1c1cccc(F)c1 (racemic) [Compound 1f, N-(1H-benzo[d]imidazol-2-yl)-2-(3-fluorophenyl)cyclopropane-1-carboxamide]",superior potency to DFB
6,"COc1cc(Br)ccc1NC(=O)[C@H]1C[C@@H]1c1cccc(Cl)c1 (racemic) [Compound 2d, N-(4-Bromo-2-methoxyphenyl)-2-(3-chlorophenyl)cyclopropane-1-carboxamide]",decreased potency
7,O=C(Nc1nc2ccccc2[nH]1)[C@H]1C[C@@H]1c1cccc(Cl)c1 (racemic) [Compound 2f],improved potency

# System: BV2 microglial cells
# Assay: Cell viability assay
# Type: cell-based
# Conditions: not given
row,SMILES,BV2 cell toxicity / viability (in words)
1,"COc1cc(Br)ccc1NC(=O)[C@H]1C[C@@H]1c1cccc(F)c1 (racemic) [Compound 1d, N-(4-Bromo-2-methoxyphenyl)-2-(3-fluorophenyl)cyclopropane-1-carboxamide]",excellent BV2 microglial cell viability
2,"O=C(N[C@H]1C[C@@H]1c1cccc(F)c1)c1cccc(F)c1 (racemic) [Compound 3a, 3-fluoro-N-(2-(3-fluorophenyl)cyclopropyl)benzamide]",excellent cell viability
3,O=C(N[C@H]1C[C@@H]1c1cccc(F)c1)c1cccc([N+](=O)[O-])c1 (racemic) [Compound 3c],significant BV2 cell toxicity
4,O=C(N[C@H]1C[C@@H]1c1cccc(F)c1)c1ccc([N+](=O)[O-])cc1 (racemic) [Compound 3d],significant BV2 cell toxicity

# — publication PMC4690453 (Bioorganic & medicinal chemistry letters, 2015)
